For this assay, the target named is PDE4 (Homo sapiens, UniProt Q07343). The assay is described as follows: PDE4 Assay Procedure ([3H]-cAMP SPA). The following applies: 15 nM [3H]-cAMP, 1 hour at room temperature, SPA beads; read-out: HPDE4B or IC50 PDE4. The class given is biochemical. As to the method: Compounds to be tested were resuspended in DMSO at a stock concentration of 1 mM. […] These dilutions were done in 96-well plates. In some cases, plates containing diluted compounds were frozen before being assayed. In these cases, the plates were thawed at room temperature and stirred for 15 minutes.
Ten microliters of the diluted compounds were poured into a “low binding” assay plate. […] The reaction was initiated by adding ten microliters of a solution containing PDE4. The plate was then incubated under stirring for 1 hour at room temperature. After incubation the reaction was stopped with 50 microlitres of SPA beads, and the reaction was allowed to incubate for another 20 minutes at room temperature before measuring radioactivity using standard instrumentation.
The reaction mixture was prepared by adding 90 ml of H2O to 10 ml of 10× assay buffer (500 mM Tris pH 7.5, 83 mM MgCl2, 17 mM EGTA), and 40 microlitres 1 μCi/μL [3H]-cAMP. SPA beads solution was prepared by adding 500 mg to […] H2O for a final concentration of 20 mg/ml beads and 18 mM zinc sulphate.

Chain of PDE4 (Q07343 324-700 limits assumed): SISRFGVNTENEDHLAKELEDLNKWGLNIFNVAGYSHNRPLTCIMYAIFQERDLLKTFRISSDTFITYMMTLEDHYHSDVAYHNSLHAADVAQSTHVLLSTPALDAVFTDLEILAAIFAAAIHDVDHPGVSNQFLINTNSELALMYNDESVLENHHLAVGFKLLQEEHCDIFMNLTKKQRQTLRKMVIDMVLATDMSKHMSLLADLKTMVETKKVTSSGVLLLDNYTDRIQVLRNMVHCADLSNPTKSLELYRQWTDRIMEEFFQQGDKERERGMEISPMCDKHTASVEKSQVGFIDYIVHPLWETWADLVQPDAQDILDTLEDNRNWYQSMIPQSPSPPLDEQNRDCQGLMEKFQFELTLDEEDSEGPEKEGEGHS

For orientation: IC50 means the concentration that inhibits the measured activity by half. For the compound `CCn1nc(-c2cccc(C)c2)c(C(=O)OCOC(=O)C(C)(C)C)c(Nc2cccnc2)c1=O` [Example 35, [(2,2-Dimethylpropanoyl)oxy]methyl 1-ethyl-3-(3-methylphenyl)-6-oxo-5-(pyridin-3-ylamino)-1,6-dihydropyridazine-4-carboxylate], the IC50 worked out at 2.2 nM.

`CCn1nc(-c2ccccc2)c(C(=O)OCOC(=O)C(C)(C)C)c(Nc2cnccc2C)c1=O` [Example 26, [(2,2-dimethylpropanoyl)oxy]methyl 1-ethyl-5-[(4-methylpyridin-3-yl)amino]-6-oxo-3-phenyl-1,6-dihydropyridazine-4-carboxylate]: the IC50 amounted to 2.3 nM.

For `CCn1nc(-c2ccccc2)c(C(=O)OC(C)OC(=O)OC2CCCCC2)c(Nc2cccnc2)c1=O` (single isomer, unassigned; (-)) [Example 132, (−)-1-{[(Cyclohexyloxy)carbonyl]oxy}ethyl 1-ethyl-6-oxo-3-phenyl-5-(pyridin-3-ylamino)-1,6-dihydropyridazine-4-carboxylate], the IC50 worked out at 0.3 nM.

For `CCn1nc(-c2ccccc2)c(C(=O)OCOC(C)=O)c(Nc2cccnc2)c1=O` [Example 19, (Acetyloxy)methyl 1-ethyl-6-oxo-3-phenyl-5-(pyridin-3-ylamino)-1,6-dihydropyridazine-4-carboxylate], the IC50 amounted to 11 nM.

For the compound `CCOC(=O)OC(C)OC(=O)c1c(-c2ccccc2)nn(CC)c(=O)c1Nc1cnccc1C` (stereo not drawn) [Example 27, 1-[(Ethoxycarbonyl)oxy]ethyl 1-ethyl-5-[(4-methylpyridin-3-yl)amino]-6-oxo-3-phenyl-1,6-dihydropyridazine-4-carboxylate], the IC50 was 9.1 nM.

On to `CCn1nc(-c2ccccc2)c(C(=O)OC(C)OC(=O)OC2CCCCC2)c(Nc2cnccc2C)c1=O` (stereo not drawn) [Example 76, 1-{[(Cyclohexyloxy)carbonyl]oxy}ethyl 1-ethyl-5-[(4-methylpyridin-3-yl)amino]-6-oxo-3-phenyl-1,6-dihydropyridazine-4-carboxylate], for which the IC50 stood at 4.6 nM.

On to `CCn1nc(-c2ccccc2)c(C(=O)OCCl)c(Nc2cncc3ccccc23)c1=O` [Example 164, Chloromethyl 1-ethyl-5-(isoquinolin-4-ylamino)-6-oxo-3-phenyl-1,6-dihydropyridazine-4-carboxylate], for which the 50% inhibitory concentration (IC50) came to 0.1 nM.

For `CCn1nc(-c2ccccc2)c(C(=O)OCc2oc(=O)oc2C)c(Nc2cnccc2C)c1=O` [Example 142, (5-Methyl-2-oxo-1,3-dioxol-4-yl)methyl 1-ethyl-5-[(4-methylpyridin-3-yl)amino]-6-oxo-3-phenyl-1,6-dihydropyridazine-4-carboxylate], the IC50 was determined as 1.2 nM.

Consider `CCCC(=O)OCOC(=O)c1c(-c2ccccc2)nn(CC)c(=O)c1Nc1cccnc1` [Example 17, (Butyryloxy)methyl 1-ethyl-6-oxo-3-phenyl-5-(pyridin-3-ylamino)-1,6-dihydropyridazine-4-carboxylate], for which the IC50 amounted to 3.6 nM.

Regarding `CCn1nc(-c2ccccc2)c(C(=O)OCOC(=O)C(C)(C)C)c(Nc2cccnc2)c1=O` [Example 23, [(2,2-Dimethylpropanoyl)oxy]methyl 1-ethyl-6-oxo-3-phenyl-5-(pyridin-3-ylamino)-1,6-dihydropyridazine-4-carboxylate], the IC50 worked out at 0.94 nM.

As to `CCOC(=O)COC(=O)c1c(-c2ccsc2)nn(CC)c(=O)c1Nc1cnccc1C` [Example 122, 2-Ethoxy-2-oxoethyl 1-ethyl-5-[(4-methylpyridin-3-yl)amino]-6-oxo-3-(3-thienyl)-1,6-dihydropyridazine-4-carboxylate], the IC50 is 3.4 nM.

For the compound `CCn1nc(-c2ccc(C)cc2)c(C(=O)OCOC(=O)C(C)(C)C)c(Nc2cccnc2)c1=O` [Example 68, [(2,2-Dimethylpropanoyl)oxy]methyl 1-ethyl-3-(4-methylphenyl)-6-oxo-5-(pyridin-3-ylamino)-1,6-dihydropyridazine-4-carboxylate], the IC50 came to 5.7 nM.

As to `CCn1nc(-c2ccccc2)c(C(=O)OCC(=O)OCc2ccccc2)c(Nc2cccnc2)c1=O` [Example 16, 2-(Benzyloxy)-2-oxoethyl 1-ethyl-6-oxo-3-phenyl-5-(pyridin-3-ylamino)-1,6-dihydropyridazine-4-carboxylate], the IC50 was 0.22 nM.

Turning to `CCn1nc(-c2ccccc2)c(C(=O)OC2OC(=O)c3ccccc32)c(Nc2cccnc2)c1=O` (stereo not drawn) [Example 18, 3-Oxo-1,3-dihydro-2-benzofuran-1-yl 1-ethyl-6-oxo-3-phenyl-5-(pyridin-3-ylamino)-1,6-dihydropyridazine-4-carboxylate], the IC50 is 2.1 nM.

On to `CCn1nc(-c2ccccc2)c(C(=O)OCOC(=O)C(C)(C)C)c(Nc2cncc3ccccc23)c1=O` [Example 31, [(2,2-Dimethylpropanoyl)oxy]methyl 1-ethyl-5-(isoquinolin-4-ylamino)-6-oxo-3-phenyl-1,6-dihydropyridazine-4-carboxylate], for which the IC50 came out at 0.07 nM.
